Laboratory results: patent publication US11844846B2, “Styrylbenzothiazole derivatives and uses in imaging methods” (Emory University, priority 2018, dated 2023)
Several values for one entry are separate records, joined by “and”; a condition that tells them apart may be missing. Equal values may be shown once. Entries after “also recorded” stand apart in the source; their conditions may differ. Read-outs that look alike come from different tables or passages of the source.

Tests used:
[1] = biological target: T1, Tau PFFs (Homo sapiens, UniProt P10636); experiment: fluorescence spectroscopy titration with Tau PFFs; type: binding
Method: (§1) A fluorescent titration assay was conducted. The fluorescent emission intensities were determined with 0.08 μM of various fibrils in the presence of 5 μM of the small molecules.
(§2) To further investigate the selected compounds binding activities with α-Syn PFFs, fluorescence spectroscopy titrations were conducted to quantitatively measure compounds emission intensity when interacting with different concentrations of α-Syn PFFs. The UV spectrum of each compound was determined and selected for the optimal wavelength to conduct the fluorescence spectroscopic studies.

[2] = biological target: α-Syn PFFs (Homo sapiens, UniProt P37840); experiment: fluorescence spectroscopy titration with α-Syn PFFs; type: binding; details: for binding to α-Syn PFFs by fluorescent emission intensity: 0.08 μM fibrils, 5 μM small molecule, result in words
Method: as §1, §2

[3] = biological target: T2, Aβ PFFs (Homo sapiens, UniProt P05067); experiment: fluorescence spectroscopy titration with Aβ PFFs; type: binding
T2 construct: counter-screening with Tau and Aβ PFFs
Method: as §1, §2

[4] = plasma-brain ratio study / in vivo PK of EU compounds; parameters: species or system mouse; details: for B/P: single animals; for brain permeability: i.v.
Method: To address whether the selected compounds penetrate the brain, a plasma-brain ratio study was performed with EU04-03A, EU05-02A and EU05-02B.
To test whether these compounds are brain permeable in vivo, in vivo PK profiling was conducted to determine brain exposure.

[5] = tested on: α-Syn aggregated neurons; experiment: neuronal α-Syn aggregation model, fluorescent microscopy; type: cell-based; details: primary cultured neurons, AAV-α-Syn plus α-Syn PFFs
Source text: (§3) A series of derivatives were synthesized by including an amino group and a methyl group on benzothiazole to increase the brain permeability and fluorescent signals. The derivatives were subsequently subjected to α-Syn PFFs binding assay and counter-screening with Tau and Aβ PFFs. […] These compounds were screened on the neuronal α-Syn, Tau and Aβ aggregation model for the binding selectivity. Primary cultured neurons were infected with AAV-α-Syn, AAV-Tau FL for 7 days, then treated with α-Syn, Tau or Aβ PFFs. In a few days, the positive compounds were added in the primary neurons with indicated aggregates and analyzed under fluorescent microscopy.
(§4) Primary cultured neurons were infected with AAV-α-Syn, AAV-Tau FL or AAV-APP fragment virus for 7 days, and then treated with α-Syn, Tau or Aβ PFFs by following the described protocols (Volpicelli-Daley et al., 2014). In a few days, the positive compounds were added in the primary neurons with indicated aggregation.

[6] = biological target: T3, LBs and LNs in DLB and MSA patient brains (Homo sapiens, UniProt P37840); experiment: ex vivo screening on DLB and MSA patient brain sections; type: binding
T3 construct: from tissue; host or cells: brain sections of DLB and MSA patients
Source text: (§5) Ex vivo screening was extended into human DLB, MSA and AD patient samples. […] Since there are detectable α-Syn aggregates in AD patient brains, these compounds colocalized with p-S129 positive α-Syn inclusions.
(§6) The ex vivo screening was extended into human DLB, MSA and AD patient samples. Neurodegenerative disease of DLB (dementia with Lewy Bodies) and MSA belongs to synucleinopathies with well-defined Lewy bodies.

[7] = biological target: T4, Lewy bodies in α-Syn A53T virus injected WT mice brain slices (Homo sapiens, UniProt P37840, A53T); experiment: staining of mouse brain slices with Lewy bodies; type: binding
T4 construct: from tissue; host or cells: brain (substantia nigra) of wild-type mice injected with α-Syn A53T virus
Method: (§7) To further explore whether the positive compounds selectively bind to the Lewy bodies, α-Syn A53T patient-derived mutant virus injected WT mice brain slices were employed. These mice display extensive Lewy bodies in the SN.
(§8) To further explore whether the positive compounds selectively bind to the Lewy bodies, a α-Syn A53T patient-derived mutant virus was injected into WT mice brain slices. These mice display extensive Lewy bodies in the Substantial nigra (SN). Moreover, P301S mice expressed neurofibrillary tangles (NFT). The Lewy bodies were labeled with p-α-Syn S129 antibody and the positive aggregates were also labeled with the fluorescent signals from the small molecules. […] However, it was worth noting that almost none of the tested compounds were reactive with NFT.

[8] = tested on: NFT in Tau P301S and 3×Tg mice brain sections; experiment: staining of mouse brain sections with NFT; type: binding
Method: as §7, §8

[9] = biological target: T5, senile plaques in 5×FAD and 3×Tg mice brain sections (Homo sapiens, UniProt P05067); experiment: staining of mouse brain sections with senile plaques; type: binding
T5 construct: Aβ-enriched senile plaques; from tissue; host or cells: brain sections of 5×FAD and 3×Tg mice

[10] = tested on: senile plaques or NFT in AD; experiment: ex vivo screening on AD patient brain sections; type: binding, human
Source text: as §5, §6

[11] = tested on: neurons with Aβ or Tau aggregates; experiment: neuronal Aβ and Tau aggregation models, fluorescent microscopy; type: cell-based; details: primary cultured neurons
Source text: as §3, §4

[12] = biological target: pre-formed fibrils (PFFs) of α-Synuclein (Homo sapiens, UniProt P37840); experiment: in vitro binding assay with α-Syn PFFs; details: result in words; for binding activity toward α-Syn PFFs: fibrils binding assay
Source text: (§9) The general strategy that was employed to screen the candidate Lewy body PET agents is summarized as follows: (a) To perform in vitro binding assay with Pre-formed fibrils (PFFs) of α-Syn and counter-screening with Tau and Aβ PFFs; (b) To test the positive compounds in the neuronal models with aggregated α-Syn, Tau or […]; (c) To screen with the brain slides from α-Syn mutant A53T virus injected WT mice, and counter-screen with aged 3×Tg (containing both senile plaques and NFT), and aged Tau P301S (NFT) brain sections; (d) to screen the patient brain sections from DLB and MSA against AD; (e) To determine the binding kinetics between α-Syn PFFs and positive hits; (f) To determine the candidates in vivo brain/plasma (B/P) ratios and the brain permeability; (g) To determine the in vivo PET images in α-Syn A53T with candidates and compare its images in 5XFAD and Tau P301S mice.
(§10) To perform in vitro binding assay, commercial compounds were screened (See FIG. 7B).
as §3
To perform in vitro binding assay, compounds were screened. […] An amino group and a methyl group in the benzothazole were added to increase its brain permeability and fluorescent signals. […] The synthesized derivatives were subsequently subjected to the α-Syn PFFs binding and counter-screen of Tau and Aβ PFFs as described above.

[13] = biological target: T2, Aβ PFFs; experiment: counter-screening with Aβ PFFs; type: binding; details: result in words
Source text: as §9, §10
(§11) A series of derivatives were synthesized by including an amino group and a methyl group on benzothiazole to increase the brain permeability and fluorescent signals. The derivatives were subsequently subjected to α-Syn PFFs binding assay and counter-screening with Tau and Aβ PFFs. […] In a few days, the positive compounds were added in the primary neurons with indicated aggregates and analyzed under fluorescent microscopy. […]

[14] = biological target: T1, Tau PFFs; experiment: counter-screening with Tau PFFs; type: binding; details: result in words
Source text: as §9, §10, §11

[15] = in vivo PK study of compound 13 decaying into F0502B; details: after injection of compound 13, 15 min to 90 min
[16] = 0.08 μM fibrils, 5 μM small molecule, result in words

T2 sequence (P05067 672-713 limits assumed): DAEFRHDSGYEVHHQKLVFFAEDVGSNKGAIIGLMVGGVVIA
T1 sequence (P10636 whole entry): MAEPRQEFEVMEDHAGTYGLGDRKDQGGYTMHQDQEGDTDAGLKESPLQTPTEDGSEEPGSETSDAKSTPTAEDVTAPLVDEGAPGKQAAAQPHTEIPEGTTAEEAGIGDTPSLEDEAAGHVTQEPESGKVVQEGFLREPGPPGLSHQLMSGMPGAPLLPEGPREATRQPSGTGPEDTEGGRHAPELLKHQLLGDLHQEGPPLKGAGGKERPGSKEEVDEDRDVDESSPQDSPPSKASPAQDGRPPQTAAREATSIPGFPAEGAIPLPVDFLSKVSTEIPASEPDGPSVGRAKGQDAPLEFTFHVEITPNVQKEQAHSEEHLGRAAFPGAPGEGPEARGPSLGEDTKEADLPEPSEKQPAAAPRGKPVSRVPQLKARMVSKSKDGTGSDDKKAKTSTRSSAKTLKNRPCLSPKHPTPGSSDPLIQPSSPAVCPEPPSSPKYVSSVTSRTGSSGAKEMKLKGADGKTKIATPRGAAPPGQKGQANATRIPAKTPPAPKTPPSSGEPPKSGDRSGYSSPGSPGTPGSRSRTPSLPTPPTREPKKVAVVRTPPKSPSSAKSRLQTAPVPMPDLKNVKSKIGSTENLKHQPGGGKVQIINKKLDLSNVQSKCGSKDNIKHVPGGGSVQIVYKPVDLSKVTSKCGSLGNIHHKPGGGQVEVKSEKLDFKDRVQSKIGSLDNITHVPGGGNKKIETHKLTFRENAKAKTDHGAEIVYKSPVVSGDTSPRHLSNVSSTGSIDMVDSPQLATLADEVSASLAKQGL
T5 sequence (P05067 672-713 limits assumed): as the sequence (P05067 672-713 limits assumed) above

Structure (SMILES): CN(C)c1ccc2nc(/C=C/c3ccc(O)c(Br)c3)sc2c1 [EU-004-02B, (E)-2-bromo-4-(2-(6-(dimethylamino)benzo[d]thiazol-2-yl)vinyl)phenol]
- binding to Tau PFFs by fluorescent emission intensity [1, 16]: modest and weak binding activities toward these 3 PFFs
- binding to α-Syn PFFs by fluorescent emission intensity [2]: modest and weak binding activities toward these 3 PFFs
- binding to Aβ PFFs by fluorescent emission intensity [3, 16]: modest and weak binding activities toward these 3 PFFs

Structure (SMILES): Cc1cc2nc(/C=C/c3ccc(O)c(Br)c3)sc2cc1N(C)C [EU-005-02B, (E)-2-bromo-4-(2-(6-(dimethylamino)-5-methylbenzo[d]thiazol-2-yl)vinyl)phenol]
- Kd ([1]; fluorescence spectroscopy titration, read-out: binding constant Kd for Tau PFFs): 3.7 µM
- B/P ([4]; Male ICH Mouse, 5 mg/kg IV, 0.50 h, 5 mg/kg): 2.00 and 2.47 and 1.16
- B/P ([4]; Male ICH Mouse, 5 mg/kg IV, 1.00 h, 5 mg/kg): 2.72 and 6.12 and 4.48
- B/P ([4]; Male ICH Mouse, 5 mg/kg IV, 2.00 h, 5 mg/kg): 5.13 and 13.88 and 25.06
- B/P ([4]; Male ICH Mouse, 5 mg/kg IV, 4.00 h, 5 mg/kg): 29.74 and 5.63 and 21.06
- B/P ([4]; Male ICH Mouse, 5 mg/kg IV, 8.00 h, 5 mg/kg): 57.33 and 78.00 and 36.00
- Kp at 0.5 h ([4]; male, ICH, mouse, brain, iv, 5 mg/kg, Male ICH Mouse, 5 mg/kg IV, 0.50 h, read-out: B/P Mean): 1.88
- Kp at 1 h ([4]; male, ICH, mouse, brain, iv, 5 mg/kg, Male ICH Mouse, 5 mg/kg IV, 1.00 h, read-out: B/P Mean): 4.44
- Kp at 2 h ([4]; male, ICH, mouse, brain, iv, 5 mg/kg, Male ICH Mouse, 5 mg/kg IV, 2.00 h, read-out: B/P Mean): 14.7
- Kp at 4 h ([4]; male, ICH, mouse, brain, iv, 5 mg/kg, Male ICH Mouse, 5 mg/kg IV, 4.00 h, read-out: B/P Mean): 18.8
- Kp at 8 h ([4]; male, ICH, mouse, brain, iv, 5 mg/kg, Male ICH Mouse, 5 mg/kg IV, 8.00 h, read-out: B/P Mean): 57.1
- in vivo half-life / decay ([4]; mice, i.v. 5 mg/kg, result in words): long in vivo half-life
- brain permeability ([4]; mice, result in words): time-dependent escalation of B/P ratios; also recorded: brain permeability is much higher as compared to EU-005-02A
- brain permeability ([4]; mice, result in words, listed as EU05-02B): swiftly penetrated the brain and exhibited much higher brain permeability compared to EU05-02A
- fluorescent signal in α-Syn aggregated neurons [5]: positive for selective binding
- fluorescent signal in α-Syn aggregated neurons ([5]; listed as EU05-02B): positive signals in α-Syn aggregated neurons
- staining of LBs and LNs [6]: robust signals with LBs and LNs
- staining of LBs and LNs ([6]; listed as EU05-02B): robust signals with LBs and LNs in DLB and MSA patient brains
- staining of Lewy bodies (p-α-Syn S129 positive) [7]: concrete aggregates were also stained with the fluorescent signals from EU05-02B
- binding to α-Syn PFFs by fluorescent emission intensity [2]: stronger binding affinity toward α-Syn PFFs versus Tau and Aβ PFFs; also recorded: dose-dependent escalation of the emission intensities
- binding to α-Syn PFFs by fluorescent emission intensity ([2]; listed as EU05-02B): partial binding selectivity toward α-Syn PFFs versus Aβ and Tau fibrils
- binding to α-Syn PFFs by fluorescent emission intensity ([2]; listed as EU-05-02B): showed specific association with the PFFs
- Kd ([2]; fluorescence spectroscopy titration, read-out: binding constant Kd for α-Syn PFFs): 0.17 µM
- staining of NFT [8]: barely recognized senile plaques or NFT
- staining of senile plaques [9]: barely recognized senile plaques or NFT
- staining of senile plaques or NFT (Aβ, AT8 positive aggregates) [10]: barely co-stained with anti-AD or AT8 positive aggregate signals
- staining of senile plaques or NFT (Aβ, AT8 positive aggregates) ([10]; listed as EU05-02B): did not stain senile plaques or NFT in AD
- fluorescent signal in neurons with Aβ or Tau aggregates [11]: negligible effects in neurons with Aβ or Tau aggregates
- Kd ([3]; fluorescence spectroscopy titration, read-out: binding constant Kd for Aβ PFFs): 0.85 µM

Structure (SMILES): Cc1ccc2c(c1)sc(-c1ccc(N(C)C)cc1)[n+]2C.[Cl-] [ThT, reference compound]
- binding selectivity α-Syn versus Aβ or Tau PFFs ([12]; counter-screening): non-selectively interacted with these PFFs; also recorded: non-selectively interacted with both α-Syn and Tau PFFs
- staining of Lewy bodies (p-α-Syn S129 positive) [7]: co-localized with all of these aggregates in the brain sections; also recorded: co-localized with p-S129 aggregates in the brain sections
- staining of NFT [8]: co-localized with all of these aggregates in the brain sections
- staining of senile plaques [9]: co-localized with all of these aggregates in the brain sections

Structure (SMILES): COc1ccc(/C=C/c2nc3cc(C)c(N(C)CCOCCF)cc3s2)cc1Br [compound 8, (E)-2-(3-bromo-4-methoxystyryl)-N-(2-(2-fluoroethoxy)ethyl)-N,5-dimethylbenzo[d]thiazol-6-amine]
- binding toward Aβ PFFs [13]: somehow interacted with both α-Syn and Aβ
- binding activity toward α-Syn PFFs [12]: somehow interacted with both α-Syn and Aβ
- binding toward Tau PFFs [14]: not Tau fibrils

Structure (SMILES): Cc1cc2nc(/C=C/c3ccc(OC(=O)N(C)C)c(Br)c3)sc2cc1N(C)CCOCCF [compound 13, (E)-2-bromo-4-(2-(6-((2-(2-fluoroethoxy)ethyl)(methyl)amino)-5-methylbenzo[d]thiazol-2-yl)vinyl)phenyl dimethylcarbamate]
- binding toward Aβ PFFs [13]: did not specifically interact with α-Syn, Aβ or Tau aggregates
- binding activity toward α-Syn PFFs [12]: did not specifically interact with α-Syn, Aβ or Tau aggregates
- plasma concentration course [15]: decreased in the plasma
- binding toward Tau PFFs [14]: did not specifically interact with α-Syn, Aβ or Tau aggregates
